Source: US4061777A, “Vasodilatory terpeno-phenoxyalkylamines” (Mar-Pha, Societe d'Etudeet d'Exploitation de Marques Mar-Pha, priority 1974, dated 1977)
Converted amounts (≈) assume the structure as drawn.

Columns and labels:
Staphylococcus aureus = assay: Bacteriostatic activity by the method of streaks in gelose media (minimum inhibitory concentration), Staphylococcus aureus; assay type: cell-based; conditions: Staphylococcus aureus (gram +ve)
Protocol: (§1) The bacteriostatic activity of the products according to the invention have been evaluated by the method of streaks in gelose media. This method comprises making increasing dilutions of the product to be tested, in nutritive gels poured in a Petri dish. The bacteria to be studied are introduced onto the geloses in parallel streaks by means of a platinum loop which has been immersed in a 24 hour old culture of the bacteria. […] The activity of the compounds has been studied vis a vis gram + ve (Staphylococcus aureus) and gram - ve (Escherichia coli) bacteria.

Escherichia coli = assay: Bacteriostatic activity by the method of streaks in gelose media (minimum inhibitory concentration), Escherichia coli; assay type: cell-based; conditions: Escherichia coli (gram -ve)
Protocol: as §1

[1] = system: heart taken from a rabbit; assay: Coronaro-dilatory effects in vitro on isolated rabbit heart (Langendorff's technique); conditions: for Coronary output, Duration in mins.: duration of the variation in coronary output
Protocol: They were measured in vitro on a heart taken from a rabbit, according to Langendorff's technique. The terpenophenoxy alkylamines according to the invention are administered to the aortic canal at a constant volume of 1 cm^3 for 1 minute.
The following table indicates the increase in the coronary output and the duration of this variation, depending on the doses.

[2] = Oryctolagus cuniculus, 1 min, dose 1 μg/cm^3, aortic canal, 1 cm^3 for 1 minute, increase (+), read-out: Coronary output, Variations in %
[3] = Oryctolagus cuniculus, 1 min, dose 3 μg/cm^3, aortic canal, 1 cm^3 for 1 minute, increase (+), read-out: Coronary output, Variations in %
[4] = Oryctolagus cuniculus, 1 min, dose 10 μg/cm^3, aortic canal, 1 cm^3 for 1 minute, increase (+), read-out: Coronary output, Variations in %

MIC (Staphylococcus aureus) | MIC (Escherichia coli) | Structure (SMILES) | activation at 1 µg/mL [1, 2] | activation at 3 µg/mL [1, 3] | Coronary output, Duration in mins. ([1]; dose 1 μg/cm^3) | Coronary output, Duration in mins. ([1]; dose 3 μg/cm^3) | activation at 10 µg/mL [1, 4] | Coronary output, Duration in mins. ([1]; dose 10 μg/cm^3) | activation at 100 µg/mL ([1]; Oryctolagus cuniculus, 1 min, dose 100 μg/cm^3, aortic canal, 1 cm^3 for 1 minute, increase (+), read-out: Coronary output, Variations in %) | Coronary output, Duration in mins. ([1]; dose 100 μg/cm^3)
5 mg/L (≈ 15.1 µM) | 5 mg/L (≈ 15.1 µM) | Cc1cc(OCC(O)CN)c(C2CC3CC2C(C)C3(C)C)cc1C (centres unmarked) [Example 5, 3-(2'-isocamphyl-4',5'-dimethylphenoxy)-1-amino propan-2-ol] | 13% | 70% | 2 min | > 15 min | – | – | – | –
5 mg/L (≈ 13.4 µM) | – | Cc1cc(OCC(O)CNC(C)C)c(C2CC3CC2C(C)C3(C)C)cc1C (centres unmarked) [Example 6, 3-(2'-isocamphyl-4',5'-dimethylphenoxy)-1-isopropylamino propan-2-ol] | – | 36% | – | 15 min | 66% | 9 min | – | –
5 mg/L (≈ 15.1 µM) | 5 mg/L (≈ 15.1 µM) | Cc1cc(OCC(O)CN)c(C2CC3CCC2(C)C3(C)C)cc1C (centres unmarked) [Example 4, 3-(2'-isobornyl-4,5'-dimethylphenoxy)-1-amino propan-2-ol] | – | 127% | – | 15 min | 140% | 12 min | – | –
7.5 mg/L (≈ 23.6 µM) | 5 mg/L (≈ 15.7 µM) | Cc1ccc(OCC(O)CN)c(C2CC3CC2C(C)C3(C)C)c1 (centres unmarked) [Example 12, 1-amino 3-(2'-isocamphyl-4'-methylphenoxy) propan-2-ol] | – | – | – | – | – | – | 31% | 4 min

More lines, now with the values behind:

Structure (SMILES) | MIC (Staphylococcus aureus) | MIC (Escherichia coli) | activation at 1 µg/mL [1, 2] | activation at 3 µg/mL [1, 3] | Coronary output, Duration in mins. ([1]; dose 1 μg/cm^3) | Coronary output, Duration in mins. ([1]; dose 3 μg/cm^3) | activation at 10 µg/mL [1, 4] | Coronary output, Duration in mins. ([1]; dose 10 μg/cm^3) | activation at 100 µg/mL ([1]; Oryctolagus cuniculus, 1 min, dose 100 μg/cm^3, aortic canal, 1 cm^3 for 1 minute, increase (+), read-out: Coronary output, Variations in %) | Coronary output, Duration in mins. ([1]; dose 100 μg/cm^3)
CC1(C)C2CCC1(C)C(c1cc(Br)ccc1OCCN)C2 (centres unmarked) [Example 3, 2-(2'-isobornyl-4'-bromophenoxy) ethylamine] | 7.5 mg/L (≈ 21.3 µM) | 5 mg/L (≈ 14.2 µM) | 4% | 36% | 3 min | > 15 min | – | – | – | –
Cc1cc(OCCN)c(C2CC3CCC2(C)C3(C)C)cc1C (centres unmarked) [Example 1, 2-(2'-isobornyl-4',5'-dimethylphenoxy) ethylamine] | 5 mg/L (≈ 16.6 µM) | 7.5 mg/L (≈ 24.9 µM) | – | 37% | – | 5 min | 55% | 5 min | – | –
Cc1cc(OCCN)c(C2CC3CCC2(C)C3(C)C)cc1Br (centres unmarked) [Example 2, 2-(2'-isobornyl-4'-bromo-5'-methylphenoxy) ethylamine] | 5 mg/L (≈ 13.6 µM) | 10 mg/L (≈ 27.3 µM) | 23% | 39% | > 15 min | > 15 min | – | – | – | –
CC(C)NCC(O)COc1ccccc1C1CC2CCC1(C)C2(C)C (centres unmarked) [Example 9, 1-Isopropylamino 3-(2'-isobornylphenoxy) propan-2-ol] | – | – | – | 95% | – | 4 min | 102% | 4 min | – | –
CC1(C)C2CCC1(C)C(c1ccccc1OCC(O)CN)C2 (centres unmarked) [Example 8, 1-Amino 3-(2'-isobornylphenoxy) propan-2-ol] | 20 mg/L (≈ 65.9 µM) | 7.5 mg/L (≈ 24.7 µM) | – | 24% | – | 6 min | 63% | 12 min | – | –
Cc1cc(OCC(O)CNC(C)C)c(C2CC3CCC2(C)C3(C)C)cc1C (centres unmarked) [Example 11, 1-isopropylamino 3-(2'-isobornyl-4',5'-dimethylphenoxy) propan-2-ol] | – | – | – | 72% | – | 5 min | 210% | 12 min | – | –
Cc1cc(OCCNCCO)c(C2CC3CCC2(C)C3(C)C)cc1C (centres unmarked) [Example 7, N-hydroxyethyl-2-(2'-isobornyl-4',5'-dimethylphenoxy) ethylamine] | 10 mg/L (≈ 28.9 µM) | 30 mg/L (≈ 86.8 µM) | – | 51% | – | > 15 min | 109% | > 15 min | – | –
Cc1cc(OCCN)c(C2CC3CCC2(C)C3(C)C)cc1Cl (centres unmarked) [Example 10, 2-(2-isobornyl-4-chloro-5-methylphenoxy) ethylamine] | 7.5 mg/L (≈ 23.3 µM) | 7.5 mg/L (≈ 23.3 µM) | 34% | 60% | > 15 min | > 15 min | – | – | – | –
